“Also recorded” adds a separate entry of the source.
Assays:
gastrointestinal tract = assay: Aminosterol Induced GI Response after oral capsule in a human; format: in vivo
Experimental: Gelatin capsules were prepared for oral administration. Capsules were coated in shellac to prevent their release within the stomach. Furthermore, because squalamine and related aminosterols have antibiotic activity, enteric coating prevents the drug from altering the microbial populations of the stomach. […] Squalamine dilactate powder, 99% pure, or 1436 hydrochloride, 99% pure, was added manually into either Size 0 (for the 200 mg dose) or Size 1 (for the 100 mg dose) gelatin capsules. No excipient was added. The capsules were coated twice in 5% shellac (80% acetone/20% ethanol) and dried before use.
200 mg of squalamine (lactate salt, excipient free) in a coated gelatin capsule was administered orally to a human in the morning on an empty stomach, with water. Squalamine was synthesized as described in Zasloff et al 2011. Within 2 hours nausea was experienced, lasting about 30 minutes. At 2.5 hours, increased peristalsis (“rumbling gut”) was experienced, lasting several minutes. At about 3 hours, a clear watery discharge of about 200 ml was passed rectally. A second episode occurred at 3.2 hours. Following this episode, bowel sounds quieted. No nausea or discomfort was subsequently experienced. Appetite was near normal. Despite normal feeding, feces were not passed for 2.5 days over which time no discomfort was experienced. The first feces passed after this quiescent period was soft and relatively small considering the intake of food and the time interval. Usual bowel functions resumed by about 4 days after squalamine administration.
200 mg of 1436 (HCl salt, excipients free) in a gelatin capsule was administered orally to a human in the morning on an empty stomach, with water. […] At 2 hours, about 100 ml of clear watery diarrhea, recurring at 2.75 hours, 3 hours, 3.25 hours, and 4 hours, with progressively lesser volumes of liquid discharged. First bowel movement was passed at 3.5 days, of normal consistency. The subject experienced no abdominal discomfort, bloating, etc over this period. Usual bowel functions resumed by about 4.5 days after administration of Aminosterol 1436. […]
100 mg of squalamine was orally administered in a capsule as in the first example. […] A period of “bowel quiet” was induced, however, that lasted 2 days, after which normally formed feces were passed.

[1] = system: Opioid induced constipation; assay: Oral squalamine in opioid (codeine) induced constipation, single subject; format: in vivo, human
Experimental: A normal subject began dosing with 1 tab codeine 30 mg/acetaminophen 300 mg at 8 A on Day 1, and repeated on Day 2 and Day 3. Normal bowel movement frequency was 1 or more stools/day, normally formed. Prior to codeine on Day 1, subject passed a normal stool in the AM. No bowel movements from the start of dosing through the 8 A Day 3 dose. No cramping; some gas. Some sense of fullness on the evening of Day 2.
At 9:15 A subject was administered 200 mg cap of squalamine. […] No nausea. […] A second smaller stool was passed at 12:30. […] The rapid effect on colonic motility seems unlikely to have been a direct effect of squalamine on the colon, but perhaps a downstream consequence of enteric nervous system stimulation. On Day 4, 30 mg codeine. No squalamine dosing. 7 P passed a loose stool of normal volume.

[2] = system: mucinous adenocarcinoma (Stage 4b colon cancer); assay: Oral squalamine in Stage 4b colon cancer, single subject; format: in vivo, human
Experimental: A person presented with abdominal distention, pain, and progressive weight loss of several months duration.
The individual was begun on a total daily dose of 50 mg of squalamine, administered as 25 mg twice daily, as a powder dispersed in apple sauce. Approximately 6 months after initiation of squalamine treatment the individual was seen again at the hospital due to the chance recognition of a mass on their right kidney. The kidney was surgically removed, and during the procedure the peritoneum explored. […] The mass on the kidney was a benign cyst. Treatment with squalamine continued daily for 5 years. […] The subject died […] of a myocardial infarction.

gliobastoma = assay: Oral squalamine in brain tumor, single subject; format: in vivo, human
Experimental: A person presented with headache and memory loss. […] The tumor was partially resected surgically, followed by local radiation. The subject was placed on a clinical protocol evaluating everolimus and temozolimide.
In mid October 2013, the subject began squalamine capsules with a 100 mg single dose. […] Squalamine treatment continues.

lymphoma = assay: Oral squalamine in lymphoma, single subject; format: in vivo, human
Experimental: A person with a 2 year history of progressive dementia and weakness presented with a massive cervical, axillary, and inguinal lymphadenopathy, along with malaise, somnolence and pain. […] The skin of their feet was a nonblanching bright pink hue up to the ankle with a scattered brownish purpuric rash. The individual was provided end of life care.
At the end of December 2013, the individual was begun on a daily dose of one 50 mg capsule of squalamine. […] Rash cleared within 3 days. On day 4 after squalamine initiation, a short course of dexamethsone was begun to treat the hypercalcemia, and stimulate appetite. 20 mg (4 days), 16 mg (2 days), 8 mg, 4 mg (2 days), then 2 mg daily. […] Mid-January 2014 weakness on the right, involving arm and leg was noted; a diagnosis of a mild stroke was made. […] A flat left submandibular node was felt of normal size and consistency. […] Squalamine treatment continues.

[3] = system: embryonal rhabdomyosarcoma; assay: Oral squalamine in sarcoma with dose finding by GI response, single subject; format: in vivo, human
Experimental: A person was seen because of the recurrence of an embryonal rhabdomyosarcoma. They noticed a mass in their left groin. […] The mass was surgically excised. The patient was then treated with a cocktail of chemotherapeutic agents. Several months later the mass was seen to recur in the left groin. The mass was again excised. Several months later, a tumor was gain noted in the groin, with a large mass present in the left lung.
At 300 mg daily, a clear effect was noted, that being mild nausea, 2 hours after dosing, followed by a bowel movement later in the day.

NHE-3 transporter = details: electrostatic mechanism, epithelial cell; cited from earlier work
[4] = single 100 mg oral capsule, empty stomach
[5] = single 200 mg oral capsule, morning, empty stomach, one human

squalamine
gastrointestinal response (gastrointestinal tract; 200 mg oral capsule in the evening following a large meal, overnight and following morning): No gastrointestinal response
duration of the Aminosterol-Induced GI Response (gastrointestinal tract; following a single 200 mg oral dose): about 4 days
period of bowel quiet after the watery discharge (Phase III) (gastrointestinal tract; following the larger squalamine dose (for example 200 mg)): 2 to 3 days
duration of bowel quiet (gastrointestinal tract; [4]): 2 days
nausea and watery diarrhea (gastrointestinal tract; [4]): Neither nausea, nor watery diarrhea was experienced
duration of nausea (gastrointestinal tract; [5]): about 30 minutes
first clear watery rectal discharge / diarrhea, time after dosing (gastrointestinal tract; [5]): about 3 hours
further episodes of watery discharge, time after dosing (gastrointestinal tract; [5]): 3.2 h
increased peristalsis, time after dosing (gastrointestinal tract; [5]): 2.5 h
nausea, time of onset after dosing (gastrointestinal tract; [5]): ≤ 2 h
usual bowel functions resumed, time after administration (gastrointestinal tract; [5]): about 4 days
volume of first clear watery discharge (gastrointestinal tract; [5]): about 200 ml
time without feces / to first bowel movement after dosing (gastrointestinal tract; single 200 mg oral capsule, morning, empty stomach, normal behavior about 1 passage every 24 hours): 2.5 days
estimated reduction of small intestinal motility (gastrointestinal tract; single 200 mg oral dose, versus normal about 1 passage every 24 hours): 2.5 fold
bowel response ([1]; 200 mg cap at 9:15 A on Day 3 of codeine 30 mg/acetaminophen 300 mg, no stool since start, stool at 11:15 A): passed a large soft, well formed stool with normal urgency; also recorded: A sense of bowel relief was appreciated
nausea and rectal fluid ([1]; 200 mg cap at 9:15 A on Day 3 of codeine dosing): No nausea; also recorded: No clear rectal fluid
tumor at surgical exploration of the peritoneum ([2]; 50 mg/day (25 mg twice daily, powder in apple sauce), approximately 6 months): No tumor was visible
recurrence ([2]; daily treatment for 5 years): no recurrence of cancer
decrease of tumor mass by MRI (gliobastoma; 100 mg from mid October 2013, with everolimus and temozolimide protocol, early December 2013): about 20%
residual tumor volume relative to volume after the surgery/radiation (gliobastoma; 100 mg, beginning of February 2014): 60%
physical examination of nodes (lymphoma; 50 mg daily from end of December 2013, end of February 2014): no palpable cervical nodes
lymph node size (lymphoma; 50 mg daily, by 1 week, dexamethsone from day 4): marked reduction in the size of the nodes
clinical chemistry, polyclonal immunoglobulins (lymphoma; 50 mg daily, repeat study): complete resolution of the polyclonal gammopathy
rash cleared (lymphoma; one 50 mg capsule daily): ≤ 3 days
bowel function (lymphoma; one 50 mg capsule daily, previously constipated): bowels began to move
GI response ([3]; 100 mg capsules for several days): without any noticeable GI symptoms
GI response ([3]; 200 mg daily): without any GI response
GI response ([3]; 300 mg daily): mild nausea
mild nausea, time after dosing ([3]; 300 mg daily): 2 h
tumor status ([3]; 2 months post surgery, dosing continued): no evidence of pulmonary tumors nor evidence of recurrence of any soft tissue tumor in the groin
finding in surgically removed lung tumor ([3]; 3 weeks after initiation of dosing): massive internal hemorrhage due to blood vessel damage
effect on NHE-3 transporter (NHE-3 transporter): inhibits the NHE-3 transporter

Source: patent US10975116B2, “Methods of treating and preventing gastrointestinal motility disorders using aminosterols” (Enterin, Inc., priority 2013, dated 2021)
